Measurements as given in patent publication US20050147662A1, “Compounds and compositions for delivering active agents” (Emisphere Technologies, Inc., priority 2003, published 2005).

CN(CCCCCCCC(=O)O)C(=O)c1ccccc1O [Compound 1, 8-[(2-Hydroxy-benzoyl)-methyl-amino]-octanoic acid]
melting point: 85 to 88 °C
